# In patent US5714490A, “Tetrahydrofuran antifungals” (Schering Corporation, priority 1995, dated 1998):
# How the values were obtained:
# Candida glabrata [1] = assay: in vitro broth dilution MIC against Candida glabrata; assay type: cell-based; settings: 9 strains
# Experimental: (§1) The in vitro antifungal activity tests were performed via conventional broth dilution methods in Sabouraud dextrose broth ("SDB") medium and Eagles Minimum Essential Medium ("EMEM") against a large number of fungi. Minimum Inhibitory Concentrations ("MICs") were measured after 24, 48 and 72 hour tests. In many cases, Minimum Fungicidial Concentrations ("MFCS") were measured after 48 and 72 hours.
# Aspergillus [2] = assay: in vitro broth dilution MFC against Aspergillus; assay type: cell-based, Aspergillus flavus, fumigatus and other species; settings: 37 strains
# Experimental: as §1
# Candida krusei [3] = assay: in vitro broth dilution MFC against Candida krusei; assay type: cell-based; settings: 16 strains
# Experimental: as §1
# Dermatophytes [4] = assay: in vitro broth dilution MFC against Dermatophytes; assay type: cell-based, T. rubrum, T. mentagrophytes, and T. tonsurans; settings: 6 strains
# Experimental: as §1
# [5] = serum levels, half life and tissue distribution after oral dosing; assay type: in vivo, mice, rats, dogs and monkeys
# [6] = tested on: cytochrome P-450 liver drug metabolizing enzymes; assay: induction of liver drug metabolizing enzymes in an in vivo rat model; settings: oral administration
# Aspergillus [7] = assay: in vitro broth dilution MIC against Aspergillus; assay type: cell-based, Aspergillus flavus, fumigatus and other species; settings: 37 strains
# Experimental: as §1
# Candida albicans [8] = assay: in vitro broth dilution MIC against Candida albicans; assay type: cell-based; settings: 26 strains
# Experimental: as §1
# Candida krusei [9] = assay: in vitro broth dilution MIC against Candida krusei; assay type: cell-based; settings: 16 strains
# Experimental: as §1
# [10] = tested on: Candida tropicalis & stellatoidea; assay: in vitro broth dilution MIC against Candida tropicalis & stellatoidea; assay type: cell-based; settings: 5 strains
# Experimental: as §1
# Cryptococcus neoformans [11] = assay: in vitro broth dilution MIC against Cryptococcus neoformans; assay type: cell-based; settings: 3 strains
# Experimental: as §1
# Dermatophytes [12] = assay: in vitro broth dilution MIC against Dermatophytes; assay type: cell-based, T. rubrum, T. mentagrophytes, and T. tonsurans; settings: 6 strains
# Candida glabrata [13] = assay: in vitro broth dilution MFC against Candida glabrata; assay type: cell-based; settings: 9 strains
# Experimental: as §1
# Cryptococcus neoformans [14] = assay: in vitro broth dilution MFC against Cryptococcus neoformans; assay type: cell-based; settings: 3 strains
# Experimental: as §1
# Candida albicans [15] = settings: 26 strains
# Experimental: as §1
# [16] = tested on: Candida tropicalis & stellatoidea; settings: 5 strains
# Experimental: as §1
structure (smiles),measurement,setting,value
CC[C@@H]([C@@H](C)O)n1ncn(-c2ccc(N3CCN(c4ccc(OC[C@@H]5CO[C@@](Cn6cncn6)(c6ccc(F)cc6F)C5)cc4)CC3)cc2)c1=O,PERCENTAGE OF STRAINS WITH MICs ≤1 MCG/ML,Candida glabrata [1],33 PERCENTAGE
same,PERCENTAGE OF STRAINS WITH MFCs ≤1 MCG/ML,Aspergillus [2],89 PERCENTAGE
same,PERCENTAGE OF STRAINS WITH MFCs ≤1 MCG/ML,Candida krusei [3],100 PERCENTAGE
same,PERCENTAGE OF STRAINS WITH MFCs ≤1 MCG/ML,Dermatophytes [4],100 PERCENTAGE
CC[C@@H]([C@H](C)O)n1ncn(-c2ccc(N3CCN(c4ccc(OC[C@@H]5CO[C@@](Cn6cncn6)(c6ccc(F)cc6F)C5)cc4)CC3)cc2)c1=O [drawing 22],PERCENTAGE OF STRAINS WITH MFCs ≤1 MCG/ML,Aspergillus [2],62 PERCENTAGE
same,PERCENTAGE OF STRAINS WITH MFCs ≤1 MCG/ML,Candida krusei [3],94 PERCENTAGE
same,PERCENTAGE OF STRAINS WITH MFCs ≤1 MCG/ML,Dermatophytes [4],83 PERCENTAGE
CC[C@@H]([C@H](C)O)n1ncn(-c2ccc(N3CCN(c4ccc(OC[C@@H]5CO[C@@](Cn6cncn6)(c6ccc(F)cc6F)C5)cc4)CC3)cc2)c1=O [drawing 20],serum half lives,[5]; O.D. dosing,very long serum half lives
same,tissue distribution,[5]; O.D. dosing,good tissue distribution
same,serum levels compared to azoles of similiar structure,"[5]; oral dosing, methyl cellulose formulation, mice, rats, dogs and monkeys",consistently higher serum levels
same,induction of cytochrome P-450 liver drug metabolizing enzymes,[6],not inducers
CC[C@H]([C@H](C)O)n1ncn(-c2ccc(N3CCN(c4ccc(OC[C@@H]5CO[C@@](Cn6cncn6)(c6ccc(F)cc6F)C5)cc4)CC3)cc2)c1=O,PERCENTAGE OF STRAINS WITH MICs ≤1 MCG/ML,Aspergillus [7],100 PERCENTAGE
same,PERCENTAGE OF STRAINS WITH MICs ≤1 MCG/ML,Candida albicans [8],100 PERCENTAGE
same,PERCENTAGE OF STRAINS WITH MICs ≤1 MCG/ML,Candida krusei [9],100 PERCENTAGE
same,PERCENTAGE OF STRAINS WITH MICs ≤1 MCG/ML,[10],100 PERCENTAGE
same,PERCENTAGE OF STRAINS WITH MICs ≤1 MCG/ML,Candida glabrata [1],22 PERCENTAGE
same,PERCENTAGE OF STRAINS WITH MICs ≤1 MCG/ML,Cryptococcus neoformans [11],100 PERCENTAGE
same,PERCENTAGE OF STRAINS WITH MICs ≤1 MCG/ML,Dermatophytes [12],100 PERCENTAGE
same,PERCENTAGE OF STRAINS WITH MFCs ≤1 MCG/ML,Aspergillus [2],50 PERCENTAGE
same,PERCENTAGE OF STRAINS WITH MFCs ≤1 MCG/ML,Candida krusei [3],88 PERCENTAGE
same,PERCENTAGE OF STRAINS WITH MFCs ≤1 MCG/ML,Candida glabrata [13],22 PERCENTAGE
same,PERCENTAGE OF STRAINS WITH MFCs ≤1 MCG/ML,Cryptococcus neoformans [14],100 PERCENTAGE
same,PERCENTAGE OF STRAINS WITH MFCs ≤1 MCG/ML,Dermatophytes [4],67 PERCENTAGE
same,PERCENTAGE OF STRAINS WITH MFCs ≤1 MCG/ML,Candida albicans [15],100 PERCENTAGE
same,PERCENTAGE OF STRAINS WITH MFCs ≤1 MCG/ML,[16],100 PERCENTAGE
